Tests used:
[1] = biological target: Glutamate [NMDA] receptor; test: Inhibition of [3H]DCKA binding to N-methyl-D-aspartate glutamate receptor; type: protein-complex assay
[2] = biological target: Glutamate [NMDA] receptor; test: Compound was tested for inhibition of [3H]DCKA binding to N-methyl-D-aspartate glutamate receptor; type: protein-complex assay; parameters: unit not given here

Row | IC50 [1] [µM] | Log 1/IC50 [2] | SMILES
1 | 1.8 | -0.25 | Oc1nc2ccc(Cl)cc2nc1O
2 | 3.3 | -0.52 | Cc1cc2nc(O)c(O)nc2cc1C
3 | 0.28 | 0.55 | Oc1nc2cc(Cl)cc(Cl)c2nc1O
4 | 9.8 | -0.99 | Oc1nc2ccccc2nc1O
5 | 0.78 | 0.11 | Cc1cc2nc(O)c(O)nc2cc1Cl
6 | 0.073 | 1.14 | Cc1c(C#N)cc2nc(O)c(O)nc2c1[N+](=O)[O-]
7 | 0.007 | 2.15 | O=Nc1c(O)nc2cc(Cl)c(Cl)c(Cl)c2c1O
8 | 61 | -1.78 | O=[N+]([O-])c1c(O)nc2cccc(Cl)c2c1O
9 | 4.3 | -0.63 | Oc1nc2cc(Cl)cnc2c(O)c1-c1ccsc1
10 | > 100 | -2 | Oc1nc2ncccc2c(O)c1-c1ccccc1
11 | 0.73 | 0.14 | Oc1nc2c(F)c(F)c(F)c(F)c2nc1O
12 | 31 | -1.49 | Oc1nc2ncccc2c(O)c1-c1cccc(Oc2ccccc2)c1
13 | 2.8 | -0.45 | N#Cc1cc([N+](=O)[O-])c2nc(O)c(O)nc2c1
14 | 0.095 | 1.02 | Cc1c(F)cc2nc(O)c(O)nc2c1[N+](=O)[O-]
15 | 0.082 | 1.09 | CCc1cc2nc(O)c(O)nc2c([N+](=O)[O-])c1Br
16 | 0.22 | 0.66 | O=[N+]([O-])c1c(O)nc2cc(Cl)cc(Cl)c2c1O
17 | 0.91 | 0.04 | O=Nc1c(O)nc2c(F)c(Cl)c(F)cc2c1O
18 | 3.3 | -0.52 | O=Nc1c(O)nc2c(F)c(F)c(F)c(F)c2c1O
19 | 3.3 | -0.52 | Oc1nc2cc(Cl)cnc2c(O)c1-c1ccccc1
20 | 0.053 | 1.28 | O=Nc1c(O)nc2cc(Cl)ccc2c1O
21 | > 100 | -2 | O=[N+]([O-])c1c(O)nc2ccc(Cl)cc2c1O
22 | 53 | -1.72 | COc1cc2nc(O)c(O)nc2c(OC(C)=O)c1OC

Row | IC50 [1] [µM] | Log 1/IC50 [2] | SMILES
23 | 0.15 | 0.82 | Cc1c(Cl)cc2nc(O)c(O)nc2c1N
24 | 2.1 | -0.32 | Cc1cc(C)c2nc(O)c(O)nc2c1
25 | 3.1 | -0.49 | O=c1[nH]c2cc3c(c([N+](=O)[O-])c2[nH]c1=O)CCC3
26 | > 100 | -2 | O=[N+]([O-])c1c(O)nc2c(Cl)cccc2c1O
27 | 34 | -1.53 | O=[N+]([O-])c1c(O)nc2ccccc2c1O
28 | 2.9 | -0.46 | COc1cccc(-c2c(O)nc3cc(Cl)cnc3c2O)c1
29 | 0.0047 | 2.33 | Cc1c(Cl)cc2nc(O)c(O)nc2c1[N+](=O)[O-]
30 | 40 | -1.6 | O=[N+]([O-])c1c(O)nc2c(F)c(Cl)c(F)cc2c1O
31 | 9.3 | -0.97 | Cc1cc([N+](=O)[O-])c2nc(O)c(O)nc2c1
32 | > 100 | -2 | Oc1nc2cccnc2c(O)c1-c1ccccc1
33 | > 100 | -2 | Oc1nc2ncc(Cl)cc2c(O)c1-c1ccccc1
34 | 0.012 | 1.92 | O=Nc1c(O)nc2cc(Cl)c(Cl)cc2c1O
35 | 1.9 | -0.28 | COc1c(F)cc2nc(O)c(O)nc2c1[N+](=O)[O-]
36 | 0.029 | 1.54 | CCc1cc2nc(O)c(O)nc2c([N+](=O)[O-])c1Cl
37 | 0.17 | 0.77 | O=Nc1c(O)nc2ccc(Cl)c(Cl)c2c1O
38 | 0.13 | 0.89 | CCc1c(Cl)cc2nc(O)c(O)nc2c1[N+](=O)[O-]
39 | 20 | -1.3 | Oc1nc2ccncc2c(O)c1-c1cccc(Oc2ccccc2)c1
40 | 0.023 | 1.64 | Oc1nc2cc(Cl)cnc2c(O)c1Oc1cccc(-c2ccccc2)c1
41 | 3 | -0.48 | Oc1nc2cc(Cl)cnc2c(O)c1-c1cccc(Cl)c1
42 | 0.11 | 0.96 | Oc1nc2cc(Cl)cnc2c(O)c1-c1cccc(Oc2ccccc2)c1
43 | 0.16 | 0.8 | CCc1cc2nc(O)c(O)nc2c([N+](=O)[O-])c1CC
44 | 0.29 | 0.54 | Cc1cc(C)c2c(O)c([N+](=O)[O-])c(O)nc2c1

Row | IC50 [1] [µM] | Log 1/IC50 [2] | SMILES
45 | 0.4 | 0.4 | O=[N+]([O-])c1c(O)nc2cc(Cl)c(Cl)cc2c1O
46 | 0.64 | 0.19 | CCSc1c(Cl)cc2nc(O)c(O)nc2c1[N+](=O)[O-]
47 | 0.029 | 1.54 | Cc1cc2nc(O)c(O)nc2c([N+](=O)[O-])c1C
48 | 5.4 | -0.73 | Oc1nc2cnccc2c(O)c1-c1cccc(Oc2ccccc2)c1
49 | > 100 | -2 | O=[N+]([O-])c1c(O)nc2c(F)c(F)c(F)c(F)c2c1O
50 | 0.045 | 1.35 | Cc1cc2nc(O)c(O)nc2c([N+](=O)[O-])c1Cl
51 | 13 | -1.11 | Oc1nc2cc(Cl)cnc2c(O)c1-c1ccc(Cl)cc1
52 | 9.8 | -0.99 | Oc1nc2cc(Cl)cnc2c(O)c1-c1cccs1
53 | 19 | -1.28 | Oc1nc2ncc(Cl)cc2c(O)c1-c1cccc(Oc2ccccc2)c1
54 | 4.4 | -0.64 | O=Nc1c(O)nc2cccc(Cl)c2c1O
55 | 1.4 | -0.15 | O=Nc1c(O)nc2ccccc2c1O
56 | 0.037 | 1.43 | Cc1cc(C)c2c(O)c(N=O)c(O)nc2c1
57 | 0.22 | 0.66 | O=[N+]([O-])c1c(O)nc2cc(Cl)c(Cl)c(Cl)c2c1O
58 | 0.064 | 1.19 | COc1c(Br)cc2nc(O)c(O)nc2c1[N+](=O)[O-]
59 | 4 | -0.6 | O=[N+]([O-])c1c(OCCCc2ccccc2)c(F)cc2nc(O)c(O)nc12
60 | 0.63 | 0.2 | Oc1nc2cc(F)c(Cl)c(F)c2nc1O
61 | 1.5 | -0.18 | O=[N+]([O-])c1c(O)nc2cc(Cl)ccc2c1O
62 | 17 | -1.23 | COc1cc2nc(O)c(O)nc2c(O)c1OC
63 | 0.0087 | 2.06 | Cc1c(Br)cc2nc(O)c(O)nc2c1[N+](=O)[O-]
64 | 17 | -1.23 | COc1cc2nc(O)c(O)nc2cc1OC
65 | 0.15 | 0.82 | COc1c(Cl)cc2nc(O)c(O)nc2c1[N+](=O)[O-]
66 | 1.4 | -0.15 | CCc1cc2nc(O)c(O)nc2cc1Cl

Row | IC50 [1] [µM] | Log 1/IC50 [2] | SMILES
67 | 1.8 | -0.25 | Cc1cccc(-c2c(O)nc3cc(Cl)cnc3c2O)c1
68 | 7.4 | -0.87 | O=[N+]([O-])c1cccc(-c2c(O)nc3cc(Cl)cnc3c2O)c1
69 | 0.033 | 1.48 | O=Nc1c(O)nc2cc(Cl)cc(Cl)c2c1O
70 | 4.3 | -0.63 | CCCCOc1c(F)cc2nc(O)c(O)nc2c1[N+](=O)[O-]
71 | 3.4 | -0.53 | O=Nc1c(O)nc2ccc(Cl)cc2c1O
72 | 24 | -1.38 | Oc1nc2cc(Cl)cnc2c(O)c1-c1ccccc1Cl
73 | 0.03 | 1.53 | Oc1nc2cc(Cl)c(Cl)c(Cl)c2nc1O
74 | 11 | -1.04 | Nc1c(F)cc2nc(O)c(O)nc2c1[N+](=O)[O-]
75 | 16 | -1.2 | Oc1nc2cc3ccccc3cc2nc1O
76 | > 100 | -2 | Oc1nc2cc3c(cc2nc1O)OCO3
77 | > 100 | -2 | Oc1cc2nc(O)c(O)nc2cc1O
78 | > 100 | -2 | O=Nc1c(O)nc2c(Cl)cccc2c1O
79 | 3.6 | -0.56 | CCOc1c(F)cc2nc(O)c(O)nc2c1[N+](=O)[O-]
80 | > 100 | -2 | O=[N+]([O-])c1c(O)nc2c(Cl)c(Cl)c(Cl)cc2c1O
81 | 15 | -1.17 | Oc1nc2cc3c(cc2nc1O)CCC3
82 | 1.8 | -0.26 | CCc1cc2nc(O)c(O)nc2cc1CC
83 | 1 | 0 | COc1cc2nc(O)c(O)nc2cc1Br
84 | 0.13 | 0.89 | Oc1nc2cc(Cl)c(Cl)cc2nc1O [2,3-DIHYDROXY-6,7-DICHLOROQUINOXALINE]
85 | 0.0059 | 2.23 | O=c1[nH]c2cc(Cl)c(Cl)c([N+](=O)[O-])c2[nH]c1=O [LICOSTINEL]
